In ChEMBL document CHEMBL5726876, “NHE3-binding compounds and methods for inhibiting phosphate transport” (2019):
Where “and” joins values, the source holds several entries; their conditions need not be identical. Equal values may be shown once.

Test: Cell-based activity under Prompt Conditions: Cell-based activity under Prompt Conditions. Rat or human NHE3-mediated Na+-dependent H+ antiport was measured using a modification of the pH sensitive dye method originally reported by Paradiso (PNAS USA. 81:7436-7440, 1984). Opossum kidney (OK) cells were obtained from the ATCC and propagated per their instructions. The rat NHE3 gene (GenBank M85300) or the human NHE3 gene (GenBank NM_004174.1) was introduced into OK cells via electroporation, and cells were seeded into 96 well plates and grown overnight. Medium was aspirated from the wells, cells were washed twice with NaCl-HEPES buffer (100 mM NaCl, 50 mM HEPES, 10 mM glucose, 5 mM KCl, 2 mM CaCl2, 1 mM MgCl2, pH 7.4), then incubated for 30 min at room temperature with NH4Cl-HEPES buffer (20 mM NH4Cl, 80 mM NaCl, 50 mM HEPES, 5 mM KCl, 2 mM CaCl2, 1 mM MgCl2, pH 7.4) containing 5 μM bis(acetoxymethyl) 3,3′-(3′,6′-bis(acetoxymethoxy)-5-((acetoxymethoxy)carbonyl)-3-oxo-3H-spiro[isobenzofuran-1,9′-xanthene]-2′,7′-diyl)dipropanoate (BCECF-AM).Cells were washed twice with Ammonium free, Na+-free HEPES (100 mM choline, 50 mM HEPES, 10 mM glucose, 5 mM KCl, 2 mM CaCl2, 1 mM MgCl2, pH 7.4) and incubated in the same buffer for 10 minutes at room temperature to lower intracellular pH. […] Initial rates were plotted as the average 2 or more replicates, and pIC50 values were estimated using GraphPad Prism.

Row | SMILES | IC50
1 | C/C(=C\c1cc(F)c(Oc2ccc(S(=O)(=O)NCCOCCOCCOCCNCc3ccc(CNCCOCCOCCOCCNS(=O)(=O)c4ccc(Oc5c(F)cc(/C=C(\C)C(=O)N=C(N)N)cc5F)cc4)cc3)cc2)c(F)c1)C(=O)N=C(N)N | 200 nM
2 | CN(C)[C@H]1Cc2ccc(Cl)cc2[C@@H]1Oc1ccc(S(=O)(=O)NCCOCCOCCNC(=O)NCCCCNC(=O)NCCOCCOCCNS(=O)(=O)c2ccc(O[C@H]3c4cc(Cl)ccc4C[C@@H]3N(C)C)cc2)cc1 | < 10000 nM
3 | O=C(NCCCCNC(=O)NCCOCCOCCNS(=O)(=O)c1ccc(O[C@H]2c3cc(Cl)cc(Cl)c3C[C@@H]2N2CC[C@@H](O)C2)cc1)NCCOCCOCCNS(=O)(=O)c1ccc(O[C@H]2c3cc(Cl)cc(Cl)c3C[C@@H]2N2CC[C@@H](O)C2)cc1 | < 10000 nM
4 | CN1Cc2c(Cl)cc(Cl)cc2[C@H](c2cccc(S(=O)(=O)NCCOCCOCCNC(=O)NCCC(CCNC(=O)NCCOCCOCCNS(=O)(=O)c3cccc([C@@H]4CN(C)Cc5c(Cl)cc(Cl)cc54)c3)(CCNC(=O)NCCOCCOCCNS(=O)(=O)c3cccc([C@@H]4CN(C)Cc5c(Cl)cc(Cl)cc54)c3)NC(=O)COCC(=O)O)c2)C1 | 6.31 nM
5 | C/C(=C\c1cc(F)c(Oc2ccc(S(=O)(=O)NCCOCCOCCOCCNC(=O)NCCOCCOCCNC(=O)NCCOCCOCCOCCNS(=O)(=O)c3ccc(Oc4c(F)cc(/C=C(\C)C(=O)N=C(N)N)cc4F)cc3)cc2)c(F)c1)C(=O)N=C(N)N | 100 nM
6 | CN1Cc2c(Cl)cc(Cl)cc2[C@H](c2cccc(S(=O)(=O)NCCOCCOCCOCCNC(=O)NCCN3CCN(c4nc(N5CCN(CCNC(=O)NCCOCCOCCOCCNS(=O)(=O)c6cccc([C@@H]7CN(C)Cc8c(Cl)cc(Cl)cc87)c6)CC5)nc(N5CCN(CCNC(=O)NCCOCCOCCOCCNS(=O)(=O)c6cccc([C@@H]7CN(C)Cc8c(Cl)cc(Cl)cc87)c6)CC5)n4)CC3)c2)C1 | 200 nM
7 | CN1Cc2c(Cl)cc(Cl)cc2[C@H](c2cccc(S(=O)(=O)NCCOCCOCCOCCNC(=O)CC(CC(=O)NCCOCCOCCOCCNS(=O)(=O)c3cccc([C@@H]4CN(C)Cc5c(Cl)cc(Cl)cc54)c3)C(=O)NCCOCCOCCOCCNS(=O)(=O)c3cccc([C@@H]4CN(C)Cc5c(Cl)cc(Cl)cc54)c3)c2)C1 | 31.6 nM
8 | CN1Cc2c(Cl)cc(Cl)cc2[C@H](c2cccc(S(=O)(=O)NCCOCCOCCOCCn3cc(CN(Cc4cn(CCOCCOCCOCCNS(=O)(=O)c5cccc([C@@H]6CN(C)Cc7c(Cl)cc(Cl)cc76)c5)nn4)Cc4cnnn4CCOCCOCCOCCNS(=O)(=O)c4cccc([C@@H]5CN(C)Cc6c(Cl)cc(Cl)cc65)c4)nn3)c2)C1 | 5010 nM
9 | CN1Cc2c(Cl)cc(Cl)cc2[C@H](c2cccc(S(=O)(=O)NCCOCCOCCNC(=O)CCC(CCC(=O)NCCOCCOCCNS(=O)(=O)c3cccc([C@@H]4CN(C)Cc5c(Cl)cc(Cl)cc54)c3)(CCC(=O)NCCOCCOCCNS(=O)(=O)c3cccc([C@@H]4CN(C)Cc5c(Cl)cc(Cl)cc54)c3)NC(=O)N(C)C)c2)C1 | 2510 nM
10 | CCOCCOCCOCCNC(=O)[C@H](O)[C@@H](O)C(=O)NCCOCCOCCOCCNS(=O)(=O)c1ccc(O[C@H]2c3ccccc3C[C@@H]2N2CCCCC2)cc1 | 20 nM
11 | CN1Cc2c(Cl)cc(Cl)cc2[C@H](c2cccc(S(=O)(=O)NCCOCCOCCNC(=O)NCCN(CCNC(=O)NCCOCCOCCNS(=O)(=O)c3cccc([C@@H]4CN(C)Cc5c(Cl)cc(Cl)cc54)c3)C(=O)CCCCCCCCCCC(=O)N(CCNC(=O)NCCOCCOCCNS(=O)(=O)c3cccc([C@@H]4CN(C)Cc5c(Cl)cc(Cl)cc54)c3)CCNC(=O)NCCOCCOCCNS(=O)(=O)c3cccc([C@@H]4CN(C)Cc5c(Cl)cc(Cl)cc54)c3)c2)C1 | < 10000 nM
12 | CN1Cc2c(Cl)cc(Cl)cc2[C@H](c2cccc(S(=O)(=O)NCCOCCOCCOCCNC(=O)COCC(=O)NCCOCCOCCOc3cccc(-c4nc(NC(=N)N)nc5ccc(Cl)cc45)c3)c2)C1 | 141 nM
13 | C/C(=C\c1cc(F)c(Oc2ccc(S(=O)(=O)NCCOCCOCCOCCNC(=O)N(C)CCCCN(C)C(=O)NCCOCCOCCOCCNS(=O)(=O)c3ccc(Oc4c(F)cc(/C=C(\C)C(=O)N=C(N)N)cc4F)cc3)cc2)c(F)c1)C(=O)N=C(N)N | 15.8 nM
14 | CCCCCCCCOCCOCCOCCOCCOCCOC(=O)NCCOCCOCCOCCNS(=O)(=O)c1cccc([C@@H]2CN(C)Cc3c(Cl)cc(Cl)cc32)c1 | 251 nM
15 | N=C(N)Nc1nc(-c2cccc(S(=O)(=O)NCCOCCOCCN)c2)c2cc(Cl)ccc2n1 | 501 nM
16 | CN(C)[C@H]1Cc2c(Cl)cc(Cl)cc2[C@@H]1Oc1ccc(S(=O)(=O)NCCOCCOCCNC(=O)[C@H](O)[C@@H](O)C(=O)NCCOCCOCCNS(=O)(=O)c2ccc(O[C@H]3c4cc(Cl)cc(Cl)c4C[C@@H]3N(C)C)cc2)cc1 | 2.51 nM
17 | CCCCCCCCOc1ccc(CNCCOCCOCCOCCNS(=O)(=O)c2cccc([C@@H]3CN(C)Cc4c(Cl)cc(Cl)cc43)c2)cc1 | < 10000 nM
18 | CN1Cc2c(Cl)cc(Cl)cc2[C@H](c2cccc(S(=O)(=O)NCCOCCOCCNC(=O)CN(CCOCCOCCOCCN)CC(=O)NCCOCCOCCNS(=O)(=O)c3cccc([C@@H]4CN(C)Cc5c(Cl)cc(Cl)cc54)c3)c2)C1 | 15.8 nM
19 | COCCNC(=O)CN(C)CC(=O)NCCOCCOCCNC(=O)NCCOCCOCCOCCOc1cccc(-c2nc(NC(=N)N)nc3ccc(Cl)cc23)c1 | 31.6 nM

Row | SMILES | IC50
20 | CN1Cc2c(Cl)cc(Cl)cc2[C@H](c2cccc(S(=O)(=O)NCCOCCOCCOCCNC(=O)CN(CCN(CC(=O)O)CC(=O)NCCOCCOCCOCCNS(=O)(=O)c3cccc([C@@H]4CN(C)Cc5c(Cl)cc(Cl)cc54)c3)CC(=O)O)c2)C1 | 10 nM
21 | CN1Cc2c(Cl)cc(Cl)cc2[C@H](c2cccc(S(=O)(=O)NCCOCCOCCNC(=O)CCC(CCC(=O)NCCOCCOCCNS(=O)(=O)c3cccc([C@@H]4CN(C)Cc5c(Cl)cc(Cl)cc54)c3)(CCC(=O)NCCOCCOCCNS(=O)(=O)c3cccc([C@@H]4CN(C)Cc5c(Cl)cc(Cl)cc54)c3)NC(=O)NC(CO)(CO)CO)c2)C1 | < 10000 nM
22 | CN1Cc2c(Cl)cc(Cl)cc2[C@H](c2cccc(S(=O)(=O)NCCOCCOCCOCCNC(=O)c3cc(C(=O)NCCOCCOCCOCCNS(=O)(=O)c4cccc([C@@H]5CN(C)Cc6c(Cl)cc(Cl)cc65)c4)cc(C(=O)NCCOCCOCCOCCNS(=O)(=O)c4cccc([C@@H]5CN(C)Cc6c(Cl)cc(Cl)cc65)c4)c3)c2)C1 | 126 nM
23 | CC(C)(C(=O)NCCOCCOCCOCCNS(=O)(=O)c1ccc(O[C@H]2c3ccccc3C[C@@H]2N2CCCCC2)cc1)C(=O)NCCOCCOCCOCCNS(=O)(=O)c1ccc(O[C@H]2c3ccccc3C[C@@H]2N2CCCCC2)cc1 | 2 nM
24 | C/C(=C\c1cc(F)c(Oc2ccc(S(=O)(=O)NCCOCCOCCOCCNC(=O)N3CCN(C(=O)NCCOCCOCCOCCNS(=O)(=O)c4ccc(Oc5c(F)cc(/C=C(\C)C(=O)N=C(N)N)cc5F)cc4)CC3)cc2)c(F)c1)C(=O)N=C(N)N | 20 nM
25 | NCCOCCOCCN1CCN(c2cccc(-c3nc(N=C(N)N)nc4ccc(Cl)cc34)c2)CC1 | 200 nM
26 | CCOCCOCCOCCNC(=O)CN(CCN(CC(=O)O)CC(=O)NCCOCCOCCOCCNS(=O)(=O)c1ccc(O[C@H]2c3ccccc3C[C@@H]2N2CCCCC2)cc1)CC(=O)O | 22.4 nM
27 | NCCOCCOCCNS(=O)(=O)c1ccc(O[C@H]2c3cc(Cl)cc(Cl)c3C[C@@H]2N2CCCCC2)cc1 | < 10000 nM
28 | CN1Cc2c(Cl)cc(Cl)cc2[C@H](c2cccc(S(=O)(=O)N(CCO)CCOCCOCCNC(=O)NCCCN(CCCNC(=O)NCCOCCOCCN(CCO)S(=O)(=O)c3cccc([C@@H]4CN(C)Cc5c(Cl)cc(Cl)cc54)c3)CCCNC(=O)NCCOCCOCCN(CCO)S(=O)(=O)c3cccc([C@@H]4CN(C)Cc5c(Cl)cc(Cl)cc54)c3)c2)C1 | 15.8 nM
29 | CN1Cc2c(Cl)cc(Cl)cc2[C@H](c2cccc(S(=O)(=O)NCCOCCOCCNC(=O)CCC(CCC(=O)NCCOCCOCCNS(=O)(=O)c3cccc([C@@H]4CN(C)Cc5c(Cl)cc(Cl)cc54)c3)(CCC(=O)NCCOCCOCCNS(=O)(=O)c3cccc([C@@H]4CN(C)Cc5c(Cl)cc(Cl)cc54)c3)NCc3ccc(-c4ccc(Cl)cc4)cc3)c2)C1 | < 10000 nM
30 | C/C(=C\c1cc(F)c(Oc2ccc(S(=O)(=O)NCCOCCOCCOCCN)cc2)c(F)c1)C(=O)N=C(N)N | 126 nM
31 | CN1Cc2c(Cl)cc(Cl)cc2[C@H](c2cccc(S(=O)(=O)NCCOCCOCCNC(=O)CN(CCOCCOCCOCCNC(=O)c3ccc(-c4ccc(Cl)cc4)cc3)CC(=O)NCCOCCOCCNS(=O)(=O)c3cccc([C@@H]4CN(C)Cc5c(Cl)cc(Cl)cc54)c3)c2)C1 | 1260 nM
32 | CN1Cc2c(Cl)cc(Cl)cc2[C@H](c2cccc(S(=O)(=O)NCCOCCOCCNC(=O)CCC(CCC(=O)NCCOCCOCCNS(=O)(=O)c3cccc([C@@H]4CN(C)Cc5c(Cl)cc(Cl)cc54)c3)(CCC(=O)NCCOCCOCCNS(=O)(=O)c3cccc([C@@H]4CN(C)Cc5c(Cl)cc(Cl)cc54)c3)NC(=O)NC[C@H](O)[C@@H](O)[C@H](O)[C@H](O)CO)c2)C1 | 56.2 nM
33 | C/C(=C\c1cc(F)c(Oc2ccc(S(=O)(=O)NCCOCCOCCOCCNC(=O)OCCOCCOCCOC(=O)NCCOCCOCCOCCNS(=O)(=O)c3ccc(Oc4c(F)cc(/C=C(\C)C(=O)N=C(N)N)cc4F)cc3)cc2)c(F)c1)C(=O)N=C(N)N | 31.6 nM
34 | CN1Cc2c(Cl)cc(Cl)cc2[C@@H](c2cccc(S(=O)(=O)NCCOCCOCCNC(=O)NCCCCNC(=O)NCCOCCOCCNS(=O)(=O)c3cccc([C@@H]4CN(C)Cc5c(Cl)cc(Cl)cc54)c3)c2)C1 | 50.1 nM and < 10000 nM
35 | N=C(N)Nc1nc(-c2ccc(S(=O)(=O)NCCOCCOCCN)cc2)c2cc(Cl)ccc2n1 | 126 nM
36 | CN1Cc2c(Cl)cc(Cl)cc2[C@H](c2cccc(S(=O)(=O)NCCOCCOCCNC(=O)CCC(N)(CCC(=O)NCCOCCOCCNS(=O)(=O)c3cccc([C@@H]4CN(C)Cc5c(Cl)cc(Cl)cc54)c3)CCC(=O)NCCOCCOCCNS(=O)(=O)c3cccc([C@@H]4CN(C)Cc5c(Cl)cc(Cl)cc54)c3)c2)C1 | 85.1 nM
37 | CN(C)[C@H]1Cc2c(Cl)cc(Cl)cc2[C@@H]1Oc1ccc(S(=O)(=O)NCCOCCOCCNC(=O)CCC(=O)NCCOCCOCCNS(=O)(=O)c2ccc(O[C@H]3c4cc(Cl)cc(Cl)c4C[C@@H]3N(C)C)cc2)cc1 | 3.98 nM
